Measurements taken from ChEMBL document CHEMBL5291721, “A preclinical secondary pharmacology resource illuminates target-adverse drug reaction associations of marketed drugs” (Nat Commun, 2023).

Assays:
[1] = biological target: T1, Neuropeptide Y receptor type 2 (Homo sapiens, UniProt P49146)
T1 sequence (P49146 whole entry): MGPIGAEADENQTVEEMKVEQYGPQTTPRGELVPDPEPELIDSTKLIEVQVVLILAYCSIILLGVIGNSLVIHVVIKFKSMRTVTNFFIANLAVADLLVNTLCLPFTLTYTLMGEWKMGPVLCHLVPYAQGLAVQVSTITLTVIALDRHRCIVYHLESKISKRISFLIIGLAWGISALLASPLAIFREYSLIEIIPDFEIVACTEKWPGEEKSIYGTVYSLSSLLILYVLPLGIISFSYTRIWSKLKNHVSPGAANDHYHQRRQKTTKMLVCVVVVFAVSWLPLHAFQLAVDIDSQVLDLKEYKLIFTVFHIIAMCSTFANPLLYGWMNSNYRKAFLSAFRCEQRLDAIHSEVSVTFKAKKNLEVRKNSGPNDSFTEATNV

B1 bradykinin receptor = biological target: T2, B1 bradykinin receptor (Homo sapiens, UniProt P46663)
T2 sequence (P46663 whole entry): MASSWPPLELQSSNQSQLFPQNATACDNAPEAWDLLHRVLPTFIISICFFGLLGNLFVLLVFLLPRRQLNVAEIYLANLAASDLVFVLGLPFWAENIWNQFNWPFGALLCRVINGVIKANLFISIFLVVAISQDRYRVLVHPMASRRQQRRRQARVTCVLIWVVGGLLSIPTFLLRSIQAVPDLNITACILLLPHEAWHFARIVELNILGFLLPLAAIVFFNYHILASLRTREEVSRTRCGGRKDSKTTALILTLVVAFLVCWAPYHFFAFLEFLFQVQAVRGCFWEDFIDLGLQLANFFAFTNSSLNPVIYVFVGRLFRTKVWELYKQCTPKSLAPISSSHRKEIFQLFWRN

Estrogen receptor = biological target: T3, Estrogen receptor (Homo sapiens, UniProt P03372)
T3 sequence (P03372 whole entry): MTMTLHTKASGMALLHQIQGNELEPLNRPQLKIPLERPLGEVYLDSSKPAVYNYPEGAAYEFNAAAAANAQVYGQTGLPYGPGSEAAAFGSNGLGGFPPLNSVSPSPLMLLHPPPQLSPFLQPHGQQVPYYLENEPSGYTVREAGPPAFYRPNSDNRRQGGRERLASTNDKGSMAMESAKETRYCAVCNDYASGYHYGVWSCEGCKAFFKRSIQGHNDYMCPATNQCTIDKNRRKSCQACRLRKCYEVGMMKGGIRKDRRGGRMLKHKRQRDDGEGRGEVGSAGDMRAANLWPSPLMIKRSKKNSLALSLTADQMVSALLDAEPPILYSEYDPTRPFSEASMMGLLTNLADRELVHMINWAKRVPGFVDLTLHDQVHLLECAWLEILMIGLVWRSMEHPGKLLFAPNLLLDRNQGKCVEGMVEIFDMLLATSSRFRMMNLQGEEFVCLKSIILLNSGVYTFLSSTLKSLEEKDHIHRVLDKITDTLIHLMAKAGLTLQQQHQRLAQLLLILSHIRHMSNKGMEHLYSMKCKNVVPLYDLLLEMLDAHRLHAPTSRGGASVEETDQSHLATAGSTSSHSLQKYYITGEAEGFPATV

[2] = biological target: T4, Endothelin receptor type B (Homo sapiens, UniProt P24530)
T4 sequence (P24530 whole entry): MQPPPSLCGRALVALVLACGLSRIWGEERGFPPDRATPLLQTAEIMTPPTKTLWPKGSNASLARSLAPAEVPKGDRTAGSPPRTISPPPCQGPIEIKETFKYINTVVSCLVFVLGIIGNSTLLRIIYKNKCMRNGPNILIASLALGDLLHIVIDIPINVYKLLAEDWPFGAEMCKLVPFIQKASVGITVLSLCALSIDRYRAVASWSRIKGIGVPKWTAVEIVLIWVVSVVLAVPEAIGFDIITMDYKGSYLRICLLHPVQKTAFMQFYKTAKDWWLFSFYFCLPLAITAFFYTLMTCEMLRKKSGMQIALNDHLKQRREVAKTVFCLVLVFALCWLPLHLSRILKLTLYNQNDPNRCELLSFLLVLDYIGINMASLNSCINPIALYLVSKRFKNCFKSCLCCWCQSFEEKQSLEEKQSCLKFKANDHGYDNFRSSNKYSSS

[3] = biological target: Gamma-aminobutyric acid receptor subunit alpha-1/alpha-2/beta-2/gamma-2 (Homo sapiens, UniProt P14867+P18507+P47869+P47870); format: functional, cell-based
[4] = biological target: T5, Alpha-2B adrenergic receptor (Homo sapiens, UniProt P18089)
T5 sequence (P18089 whole entry): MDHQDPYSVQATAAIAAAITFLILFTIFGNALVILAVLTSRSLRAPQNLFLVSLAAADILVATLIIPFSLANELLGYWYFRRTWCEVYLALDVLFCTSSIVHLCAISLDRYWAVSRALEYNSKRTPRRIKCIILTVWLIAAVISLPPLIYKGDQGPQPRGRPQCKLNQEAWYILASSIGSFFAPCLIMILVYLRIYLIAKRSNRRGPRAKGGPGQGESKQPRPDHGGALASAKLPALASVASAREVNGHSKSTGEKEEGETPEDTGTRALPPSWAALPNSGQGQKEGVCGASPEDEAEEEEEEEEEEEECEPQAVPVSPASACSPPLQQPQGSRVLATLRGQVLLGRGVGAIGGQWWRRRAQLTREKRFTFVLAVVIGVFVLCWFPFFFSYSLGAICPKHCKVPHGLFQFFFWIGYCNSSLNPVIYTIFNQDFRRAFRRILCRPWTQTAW

Mu-type opioid receptor = Mu-type opioid receptor (Homo sapiens, UniProt P35372); assay: biochemical; format: functional
[5] = biological target: T6, Muscarinic acetylcholine receptor M1 (Homo sapiens, UniProt P11229); format: functional
T6 sequence (P11229 whole entry): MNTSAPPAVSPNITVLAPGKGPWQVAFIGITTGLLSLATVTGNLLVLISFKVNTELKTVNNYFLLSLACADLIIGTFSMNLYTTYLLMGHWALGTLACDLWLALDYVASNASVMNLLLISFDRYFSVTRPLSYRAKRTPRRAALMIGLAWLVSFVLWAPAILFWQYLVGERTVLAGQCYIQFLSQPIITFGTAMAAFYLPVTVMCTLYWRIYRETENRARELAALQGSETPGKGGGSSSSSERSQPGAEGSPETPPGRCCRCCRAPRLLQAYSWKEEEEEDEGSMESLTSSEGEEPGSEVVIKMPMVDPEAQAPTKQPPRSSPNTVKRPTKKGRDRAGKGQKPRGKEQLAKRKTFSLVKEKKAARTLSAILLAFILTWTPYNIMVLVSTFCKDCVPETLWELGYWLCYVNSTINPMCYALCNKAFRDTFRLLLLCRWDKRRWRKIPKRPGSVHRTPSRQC

Histamine H1 receptor = Histamine H1 receptor (Homo sapiens, UniProt P35367)
Further: assay procedure not described here.

Gamma-aminobutyric acid receptor subunit alpha-1/alpha-2/beta-2/gamma-2, sequence (P14867 whole entry): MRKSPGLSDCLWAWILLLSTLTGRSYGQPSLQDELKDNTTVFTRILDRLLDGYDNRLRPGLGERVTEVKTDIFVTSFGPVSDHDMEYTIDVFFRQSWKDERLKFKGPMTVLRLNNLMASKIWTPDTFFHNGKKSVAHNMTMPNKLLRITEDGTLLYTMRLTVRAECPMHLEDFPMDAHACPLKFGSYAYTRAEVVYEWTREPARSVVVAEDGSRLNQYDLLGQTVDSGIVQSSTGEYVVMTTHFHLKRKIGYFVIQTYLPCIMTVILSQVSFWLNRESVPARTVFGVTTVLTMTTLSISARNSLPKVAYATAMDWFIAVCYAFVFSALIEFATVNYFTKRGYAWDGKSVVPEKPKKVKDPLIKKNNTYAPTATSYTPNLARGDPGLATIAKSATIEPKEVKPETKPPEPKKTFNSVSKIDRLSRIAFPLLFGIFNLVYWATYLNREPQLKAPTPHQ
Gamma-aminobutyric acid receptor subunit alpha-1/alpha-2/beta-2/gamma-2, sequence (P47870 whole entry): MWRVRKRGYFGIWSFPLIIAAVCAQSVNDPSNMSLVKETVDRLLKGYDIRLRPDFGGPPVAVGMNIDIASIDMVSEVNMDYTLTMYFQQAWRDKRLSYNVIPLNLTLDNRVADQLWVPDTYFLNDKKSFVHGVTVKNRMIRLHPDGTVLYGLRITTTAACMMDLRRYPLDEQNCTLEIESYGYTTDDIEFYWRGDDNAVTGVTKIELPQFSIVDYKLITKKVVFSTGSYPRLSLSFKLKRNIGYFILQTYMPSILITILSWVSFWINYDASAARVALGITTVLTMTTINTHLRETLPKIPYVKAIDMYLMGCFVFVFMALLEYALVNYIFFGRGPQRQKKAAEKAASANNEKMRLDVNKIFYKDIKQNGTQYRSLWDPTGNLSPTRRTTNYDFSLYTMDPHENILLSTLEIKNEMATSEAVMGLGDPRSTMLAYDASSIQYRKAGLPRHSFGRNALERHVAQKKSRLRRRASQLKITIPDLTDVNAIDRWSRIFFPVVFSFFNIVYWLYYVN
Gamma-aminobutyric acid receptor subunit alpha-1/alpha-2/beta-2/gamma-2, sequence (P18507 whole entry): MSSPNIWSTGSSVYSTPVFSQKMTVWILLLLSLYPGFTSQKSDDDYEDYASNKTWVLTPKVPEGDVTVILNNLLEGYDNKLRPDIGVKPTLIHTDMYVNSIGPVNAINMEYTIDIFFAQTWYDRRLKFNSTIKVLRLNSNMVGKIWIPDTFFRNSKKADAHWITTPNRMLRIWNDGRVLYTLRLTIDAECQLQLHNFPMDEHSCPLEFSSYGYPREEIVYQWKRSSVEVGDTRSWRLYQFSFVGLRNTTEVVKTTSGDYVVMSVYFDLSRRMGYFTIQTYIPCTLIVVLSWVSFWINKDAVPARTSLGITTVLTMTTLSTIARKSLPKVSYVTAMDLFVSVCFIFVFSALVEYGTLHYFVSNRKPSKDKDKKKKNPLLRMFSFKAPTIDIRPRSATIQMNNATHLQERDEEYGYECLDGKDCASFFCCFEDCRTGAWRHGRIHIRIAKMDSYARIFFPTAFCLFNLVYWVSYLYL
Gamma-aminobutyric acid receptor subunit alpha-1/alpha-2/beta-2/gamma-2, sequence (P47869 whole entry): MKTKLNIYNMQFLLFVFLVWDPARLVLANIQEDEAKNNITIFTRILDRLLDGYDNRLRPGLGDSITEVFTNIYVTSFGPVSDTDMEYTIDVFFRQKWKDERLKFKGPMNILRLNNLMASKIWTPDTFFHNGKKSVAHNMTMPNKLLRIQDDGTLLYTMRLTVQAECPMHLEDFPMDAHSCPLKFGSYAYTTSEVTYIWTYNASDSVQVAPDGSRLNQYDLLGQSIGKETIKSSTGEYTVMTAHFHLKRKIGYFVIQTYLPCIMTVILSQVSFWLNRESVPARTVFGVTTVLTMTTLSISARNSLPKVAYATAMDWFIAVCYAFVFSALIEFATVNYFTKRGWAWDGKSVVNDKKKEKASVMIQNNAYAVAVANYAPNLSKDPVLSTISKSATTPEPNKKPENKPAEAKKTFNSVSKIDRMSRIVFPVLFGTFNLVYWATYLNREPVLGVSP
Mu-type opioid receptor, sequence (P35372 whole entry): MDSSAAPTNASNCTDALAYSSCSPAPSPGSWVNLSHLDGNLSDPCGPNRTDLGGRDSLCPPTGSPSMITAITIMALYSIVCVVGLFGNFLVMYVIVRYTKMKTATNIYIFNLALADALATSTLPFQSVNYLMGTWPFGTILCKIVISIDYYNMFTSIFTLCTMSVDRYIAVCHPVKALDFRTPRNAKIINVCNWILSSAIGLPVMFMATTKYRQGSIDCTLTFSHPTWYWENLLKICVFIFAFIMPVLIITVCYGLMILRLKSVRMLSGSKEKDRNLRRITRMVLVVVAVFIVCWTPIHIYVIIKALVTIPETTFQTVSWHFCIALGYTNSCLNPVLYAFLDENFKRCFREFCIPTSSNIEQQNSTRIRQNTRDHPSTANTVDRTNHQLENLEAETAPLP
Histamine H1 receptor, sequence (P35367 whole entry): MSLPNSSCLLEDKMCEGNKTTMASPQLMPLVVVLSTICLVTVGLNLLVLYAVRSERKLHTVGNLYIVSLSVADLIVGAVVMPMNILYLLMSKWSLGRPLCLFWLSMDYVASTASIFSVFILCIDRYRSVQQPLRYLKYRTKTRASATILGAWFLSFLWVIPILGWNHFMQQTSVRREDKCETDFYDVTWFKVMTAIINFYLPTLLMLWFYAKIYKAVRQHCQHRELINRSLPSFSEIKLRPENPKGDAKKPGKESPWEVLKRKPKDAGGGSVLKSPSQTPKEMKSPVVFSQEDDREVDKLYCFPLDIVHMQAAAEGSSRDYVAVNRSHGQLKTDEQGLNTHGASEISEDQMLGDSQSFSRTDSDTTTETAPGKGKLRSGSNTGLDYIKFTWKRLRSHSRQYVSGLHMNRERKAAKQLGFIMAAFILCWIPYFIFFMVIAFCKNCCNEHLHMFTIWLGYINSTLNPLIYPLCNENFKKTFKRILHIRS

Compound	AC50 [1] [µM]	AC50 (B1 bradykinin receptor) [µM]	AC50 (Estrogen receptor) [µM]	AC50 [2] [µM]	AC50 [3] [µM]	AC50 [4] [µM]	AC50 (Mu-type opioid receptor) [µM]	AC50 [5] [µM]	AC50 (Histamine H1 receptor) [µM]
CCOc1nc2cccc(C(=O)O)c2n1Cc1ccc(-c2ccccc2-c2nnn[nH]2)cc1	> 30	> 30	> 30	> 30	> 30				
CCCc1nc2c(C)cc(-c3nc4ccccc4n3C)cc2n1Cc1ccc(-c2ccccc2C(=O)O)cc1	> 30	> 30	> 30	> 30	> 30	> 30	3.7	> 30	> 30
CCOc1cc([C@@H](CS(C)(=O)=O)N2C(=O)c3cccc(NC(C)=O)c3C2=O)ccc1OC					> 30	> 30		> 30	> 30
CC1(C)S[C@@H]2[C@H](NC(=O)C(C(=O)O)c3ccccc3)C(=O)N2[C@H]1C(=O)O (stereo partly specified) [CARBENICILLIN]					> 30	> 30	> 30	> 30	> 30
Cc1nnc(SCC2=C(C(=O)O)N3C(=O)[C@@H](NC(=O)Cn4cnnn4)[C@H]3SC2)s1 [CEFAZOLIN]			> 30		> 2400	> 300	> 30	> 300	> 300
CC(C)(O/N=C(\C(=O)N[C@@H]1C(=O)N2C(C(=O)[O-])=C(C[n+]3ccccc3)CS[C@H]12)c1csc(N)n1)C(=O)O [CEFTAZIDIME]			> 30		> 2400	> 300	> 30	> 300	> 300
CC(C)NC(=N)NC(=N)Nc1ccc(Cl)c(Cl)c1 [CHLORPROGUANIL]					> 30	10	> 30	> 30	> 30
C[N+](C)(C)CCOP(=O)(O)OP(=O)([O-])OC[C@H]1O[C@@H](n2ccc(N)nc2=O)[C@H](O)[C@@H]1O [CITICOLINE]					> 30	> 30	> 30	> 10	> 30
Clc1ccc(Cn2c(CN3CCCC3)nc3ccccc32)cc1 [CLEMIZOLE]					> 30	13		> 30	0.0034
Cc1onc(-c2c(F)cccc2Cl)c1C(=O)N[C@@H]1C(=O)N2[C@@H]1SC(C)(C)[C@@H]2C(=O)O [FLOXACILLIN]					> 30	> 30		> 30	> 30
COc1cc(C(C)=O)ccc1OCCCN1CCC(c2noc3cc(F)ccc23)CC1 [ILOPERIDONE]					> 30	0.105		6.38	
CN1Cc2c(N)cccc2C(c2ccccc2)C1 (stereo unspecified) [NOMIFENSINE]					> 30	> 30	1.4	> 30	30
